# Assays:
# Assay type in all cases: cell-based
# [1] = test system: SKOV3 (human ovarian carcinoma); experiment: CCK-8 cytotoxicity assay, SKOV3; settings: SK-OV-3, 48 h, read-out: Cytotoxicity IC50 Ovarian SKOV3
# Description: (§1) The cytotoxicity of the newly synthesized quinolinylphosphonates 7 was evaluated in vitro by testing their antiproliferative activities against several human cancer cell lines: A549 (human lung adenocarcinoma cells), SKOV3 (human ovarian carcinoma), and HEK293 (human embryonic kidney). In order to analyze the selective cytotoxicity facing exclusively cancerous cell lines, cytotoxicity against non-cancerous cell lines (MRC-5, lung fibroblast cells) was also evaluated. Cell counting kit (CCK-8) assay was employed to assess growth inhibition and, cell proliferation inhibitory activities of compounds that are listed in Table 1 as IC50 values. […] According to the data presented in Table 1, in general, all these phosphorated derivatives present higher selective cytotoxicity in the A549 cell line than in the other two cell lines, SKOV3 and HEK293, although slight differences are observed compared to human ovarian carcinoma (SKOV3).
# (§2) Cells were cultured according to the supplier’s instructions, A549 (ATCC® CCL-185), SKOV3 (ATCC® HTB-77), HEK293 (CLS GmbH), MRC-5 (ATCC® CCL-171™). Cells were seeded in 96-well plates at a density of 2–2.5 × 10^3 cells per well and incubated overnight in 0.1 mL of media supplied with 10% Fetal Bovine Serum (Lonza, Basel, Switzerland) in a 5% CO2 incubator at 37 °C. On day 2, drugs (concentration between 0.5–50 μM) were added and samples were incubated for 48 h. After treatment, 10 μL of cell counting kit-8 was added to each well for an additional 2 h incubation at 37 °C. The absorbance of each well was determined by an Automatic Elisa Reader System at 450 nm wavelength. CPT was purchased from Sigma-Aldrich and used as a positive control.
# L. infantum amastigotes = experiment: Ex vivo murine splenic explant culture, intramacrophage amastigotes; settings: Leishmania infantum, Hec50; intramacrophage amastigotes in splenic explants, 96 h, EC50 ± SD
# Description: The effect of the new quinolinylphosphonate derivatives 7 synthesized was assessed on both free-living promastigotes and intramacrophage amastigotes of L. infantum as it is described in experimental protocols. Primary cultures of intramacrophage amastigotes were obtained from splenic explants from 6-weeks infected Balb/c mice with L. infantum-iRFP promastigotes. The infrared fluorescence emitted by both stage forms of the parasite was used as viability criterium, using 0.5% DMSO as negative control (100% viability) and […] AMB as a positive control (0% viability).
# The EC50 values of compounds against the amastigote forms were calculated using a cell suspension obtained from spleens extracted from BALB/c mice. Mice had been infected previously with iRFP L. infantum metacyclic promastigotes and sacrificed five weeks after infection. To obtain the cell suspension containing amastigotes, spleens washed with cold phosphate-buffered saline (PBS), were cut into pieces, and incubated with 5 mL of 2 mg/mL collagenase D (Sigma, Darmstadt, Germany), which was prepared in buffer (10 mM HEPES, pH 7.4, 150 mM NaCl, 5 mM KCl, 1 mM MgCl2 and 1.8 mM CaCl2) for 20 min. Subsequently, these cells were passed through a 100 µm cell strainer, collected by centrifugation (500× g for 7 min at 4 °C), washed twice with PBS, and suspended in RPMI medium (Gibco, Thermo Fisher Scientific, MA, USA) supplemented with 10 mM HEPES, 1 mM sodium pyruvate, 1xRPMI 1640 vitamin mix, 10% (v/v) FBS, 50 U/mL penicillin and 50 µg/mL streptomycin, at 37 °C under a 5% CO2 atmosphere.
# To assay the effect of the different compounds against amastigotes, which infect splenic cells, these cells were seeded to confluence into 384-well black optical bottom plates (Thermo Scientific, Waltham, MA, USA) in addition to different concentrations of compound to each well. The viability of amastigotes was calculated by recording their fluorescence at 708 nm in an Odyssey (Li-Cor, NE, USA) infrared imaging system, after 96 h of exposure. Plots of the infrared fluorescence against the concentrations of tested compounds were fitted by nonlinear analysis using the Sigma Plot 10.1 statistical package and used to calculate EC50 values. As well as promastigotes viability, the assays were performed in triplicate.
# [2] = CCK-8 cytotoxicity assay, MRC-5 non-cancerous cells; settings: human, MRC-5 non-malignant lung fibroblasts
# Description: as §1, §2
# [3] = test system: A549 (human lung adenocarcinoma cells); experiment: CCK-8 cytotoxicity assay, A549; settings: A549, 48 h, read-out: Cytotoxicity IC50 Lung A549
# Description: as §1, §2
Compound,IC50 [1] [µM],EC50 (L. infantum amastigotes) [µM],IC50 at 48 h [2] [µM],IC50 [3] [µM]
"CCOP(=O)(OCC)c1ccc2nc(-c3ccc(F)cc3)cc(-c3ccccc3)c2c1 [7r, Diethyl (2-(4-fluorophenyl)-4-phenylquinolin-6-yl)phosphonate]",3.03 ± 1.24,29.2 ± 14,> 50,2.8 ± 1.24
"CCOP(=O)(OCC)c1cccc2c(-c3ccccc3)cc(-c3ccccc3OC)nc12 [7d, Diethyl (2-(2-methoxyphenyl)-4-phenylquinolin-8-yl)phosphonate]",19.4 ± 1.6,19.5 ± 2.38,> 50,12.3 ± 4.1
"CCOP(=O)(OCC)c1ccc2nc(-c3ccc(F)cc3)cc(-c3ccc(F)cc3)c2c1 [7t, Diethyl (2,4-bis(4-fluorophenyl)quinolin-6-yl)phosphonate]",> 50,31.5 ± 2.71,> 50,2.85 ± 1.26
"CCOP(=O)(OCC)c1cccc2c(-c3ccccc3)cc(-c3ccc(F)cc3)nc12 [7b, Diethyl (4-Phenyl-2-(fluorophenyl)quinolin-8-il) phosphonate]",5.29 ± 1.42,14.6 ± 1.3,> 50,2.16 ± 0.29
"CCOP(=O)(OCC)c1cccc2c(-c3ccc(F)cc3)cc(-c3ccc(F)c(F)c3)nc12 [7i, Diethyl (2-(3,4-difluorophenyl)-4-(4-fluorophenyl)quinolin-8-yl)phosphonate]",37.6 ± 9.1,13.4 ± 5.53,> 50,4.64 ± 0.3
CCOP(=O)(OCC)c1cccc2c(-c3ccc(F)cc3)cc(-c3ccccc3)nc12 [7g],9.29 ± 1.79,11.9 ± 5.17,> 50,2.27 ± 0.32
"CCOP(=O)(OCC)c1cccc2c(-c3ccccc3)cc(-c3ccccc3)nc12 [7a, Diethyl (2,4-diphenylquinolin-8-yl)phosphonate]",9.3 ± 0.76,4.03 ± 0.3,> 50,2.26 ± 0.59
"CCOP(=O)(OCC)c1ccc2nc(-c3ccc(F)c(F)c3)cc(-c3ccccc3)c2c1 [7s, Diethyl (2-(3,4-difluorophenyl)-4-phenylquinolin-6-yl)phosphonate]",> 50,14.2 ± 2.83,> 50,6.19 ± 0.67
"CCOP(=O)(OCC)c1ccc2nc(-c3ccc(F)c(F)c3)cc(-c3ccc(F)cc3)c2c1 [7u, Diethyl (2-(3,4-difluorophenyl)-4-(4-fluorophenyl)quinolin-6-yl)phosphonate]",> 50,26.4 ± 2.2,> 50,4.33 ± 1.11
"CCOP(=O)(OCC)c1ccc2nc(-c3ccc(F)c(F)c3)cc(-c3ccc(C)cc3)c2c1 [7x, Diethyl (2-(3,4-difluorophenyl)-4-(p-tolyl)quinolin-6-yl)phosphonate]",> 50,33 ± 6.55,> 50,3.05 ± 0.86
"Cc1ccc(-c2cc(-c3ccc(F)c(F)c3)nc3c(P(=O)(OC(C)C)OC(C)C)cccc23)cc1 [7q, Diisopropyl (2-(3,4-difluorophenyl)-4-(p-tolyl)quinolin-8-yl)phosphonate]",4.67 ± 1.5,13.9 ± 3.65,> 50,8.24 ± 2.42
"CC(C)OP(=O)(OC(C)C)c1cccc2c(-c3ccc(F)cc3)cc(-c3ccc(F)cc3)nc12 [7n, Diisopropyl (2,4-bis(4-fluorophenyl)quinolin-8-yl)phosphonate]",19.8 ± 3.83,5.52 ± 1.11,> 50,10.6 ± 1.73
"CCOP(=O)(OCC)c1cccc2c(-c3ccccc3)cc(-c3ccc(OC)cc3)nc12 [7c, Diethyl (2-(4-methoxyphenyl)-4-phenylquinolin-8-yl)phosphonate]",25 ± 3.6,8.23 ± 1.7,> 50,12.6 ± 1.3
"CCOP(=O)(OCC)c1ccc2nc(-c3ccc(F)cc3)cc(-c3ccc(C)cc3)c2c1 [7v, Diethyl (2-(4-fluorophenyl)-4-(p-tolyl)quinolin-6-yl)phosphonate]",41.6 ± 10,17.6 ± 7.81,> 50,0.84 ± 0.23
"CCOP(=O)(OCC)c1cccc2c(-c3ccc(C)cc3)cc(-c3ccc(F)c(F)c3)nc12 [7k, Diethyl (2-(3,4-difluorophenyl)-4-(p-tolyl)quinolin-8-yl)phosphonate]",10.6 ± 1.13,26.2 ± 3.65,> 50,2.72 ± 0.37
"CCOP(=O)(OCC)c1cccc2c(-c3ccccc3)cc(-c3cccc4ccccc34)nc12 [7f, Diethyl (2-(naphthalen-1-yl)-4-phenylquinolin-8-yl)phosphonate]",4.54 ± 0.52,19.7 ± 2.39,> 50,2.66 ± 0.16
"CC(C)OP(=O)(OC(C)C)c1cccc2c(-c3ccc(F)cc3)cc(-c3ccc(F)c(F)c3)nc12 [7o, Diisopropyl (2-(3,4-difluorophenyl)-4-(4-fluorophenyl)quinolin-8-yl)phosphonate]",22.1 ± 4.47,19.7 ± 1.73,> 50,6.79 ± 3.87
"CCOP(=O)(OCC)c1cccc2c(-c3ccc(F)cc3)cc(-c3ccc(F)cc3)nc12 [7h, Diethyl (2,4-bis(4-fluorophenyl)quinolin-8-yl)phosphonate]",9.79 ± 0.59,24.2 ± 2.37,> 50,3.07 ± 0.22
"CCOP(=O)(OCC)c1cccc2c(-c3ccccc3)cc(-c3ccc4ccccc4c3)nc12 [7e, Diethyl (2-(naphthalen-2-yl)-4-phenylquinolin-8-yl)phosphonate]",1.33 ± 0.76,20.4 ± 5.62,> 50,3.18 ± 0.27
"CC(C)OP(=O)(OC(C)C)c1cccc2c(-c3ccccc3)cc(-c3ccc(F)cc3)nc12 [7l, Diisopropyl (2-(4-fluorophenyl)-4-phenylquinolin-8-yl)phosphonate]",18.7 ± 1.98,19.5 ± 2.23,> 50,5.01 ± 2.7
"CCOP(=O)(OCC)c1cccc2c(-c3ccc(C)cc3)cc(-c3ccc(F)cc3)nc12 [7j, Diethyl (2-(4-fluorophenyl)-4-(p-tolyl)quinolin-8-yl)phosphonate]",10.2 ± 0.38,9.8 ± 0.48,> 50,0.83 ± 0.01
"CC(C)OP(=O)(OC(C)C)c1cccc2c(-c3ccccc3)cc(-c3ccc(F)c(F)c3)nc12 [7m, Diisopropyl (2-(3,4-difluorophenyl)-4-phenylquinolin-8-yl)phosphonate]",12.1 ± 1.7,10.2 ± 1.34,> 50,18.4 ± 1.4
"Cc1ccc(-c2cc(-c3ccc(F)cc3)nc3c(P(=O)(OC(C)C)OC(C)C)cccc23)cc1 [7p, Diisopropyl (2-(4-fluorophenyl)-4-(p-tolyl)quinolin-8-yl)phosphonate]",12.1 ± 1.68,24.3 ± 2.53,> 50,6.84 ± 1.74

# Reference: PMC8399847, “Hybrid Quinolinyl Phosphonates as Heterocyclic Carboxylate Isosteres: Synthesis and Biological Evaluation against Topoisomerase 1B (TOP1B)” (Pharmaceuticals, 2021)
